Eight compounds from paper PMC10860121 (ACS infectious diseases, 2023) can be followed below.

The nature of data set [1]: Chromatographic LogD7.4. The data set is classed as physicochemical. To be noted: pH 7.4; for chromatographic logD: gradient HPLC, Phenomenex Synergi Hydro-RP column; for gLogD7.4: chromatographically determined.
Data set [2] in a line: Stability in 0.1 M PBS pH 7.4. The data set is classed as physicochemical. As to conditions: 7 h incubation period.
Data set [3] deals with Chloroquine-sensitive NF54 P. falciparum isolate. Put plainly: In vitro antiplasmodial activity, NF54. It counts as cell-based, Plasmodium falciparum.
The nature of data set [4]: Stability in P. falciparum activity test medium. The data set is classed as physicochemical. As to conditions: for half-life at 1 μM: P. falciparum in vitro activity test medium.
Data set [5] can be described thus: In vitro intrinsic clearance in mouse liver microsomes. The data set is classed as in vitro ADME.
The nature of data set [6]: In vitro intrinsic clearance in human liver microsomes. It counts as in vitro ADME. To be noted: for microsomal CLint: human, liver microsomes, h CLint.
Data set [7] can be described thus: In vivo pharmacokinetics in mice. Also noted: species or system male Swiss outbred mice.
The test system of data set [8] is GFP MRA-865 strain of Plasmodium berghei. As to the kind of experiment: In vivo antimalarial activity in P. berghei-infected mice. As to conditions: female NMRI mice, four 50 mg/kg daily oral doses; untreated control 52.3 ± 2.6%.
The subject of data set [9] is P. falciparum RF12. Put plainly: In vitro antiplasmodial activity, RF12, 72 h [3H]hypoxanthine incorporation. It counts as cell-based. As to conditions: Plasmodium falciparum, read-out: P. falciparum IC50 RF12.
In data set [10] the test system is P. falciparum TM90C2B. The data set is classed as cell-based. As to conditions: Plasmodium falciparum, read-out: P. falciparum IC50 TM90C2B.
The test system of data set [11] is P. falciparum Dd2. Put plainly: In vitro antiplasmodial activity, Dd2, 72 h [3H]hypoxanthine incorporation. The data set is classed as cell-based. As to conditions: Plasmodium falciparum, DD2, read-out: P. falciparum IC50 Dd2.
Data set [12] has as its system P. falciparum K1. Put plainly: In vitro antiplasmodial activity, K1, 72 h [3H]hypoxanthine incorporation. As to conditions: Plasmodium falciparum, K1, read-out: P. falciparum IC50 K1. It counts as cell-based.
Data set [13] can be described thus: Kinetic solubility at pH 6.5 by nephelometry. It counts as physicochemical. As to conditions: pH 6.5 phosphate buffer, 1% DMSO, solubility range by nephelometry.
For data set [14], the system named is rat skeletal myoblast L6 cell line. Put plainly: Cytotoxicity, growth inhibition of L6 cells. The data set is classed as cell-based. To be noted: read-out: L6 IC50, mean from n ≥ 2.
Data set [15] concerns P. falciparum 7G8. As to the kind of experiment: In vitro antiplasmodial activity, 7G8, 72 h [3H]hypoxanthine incorporation. It counts as cell-based. As to conditions: Plasmodium falciparum, 7G8, read-out: P. falciparum IC50 7G8.
[16] abbreviates: Plasmodium falciparum, NF54, read-out: P. falciparum IC50, NF54, mean from n ≥ 2.
Where [17] appears, read: Plasmodium falciparum, NF54, read-out: P. falciparum IC50 NF54, Mean ± SD, n ≥ 2, 72 h [3H]hypoxanthine incorporation assay.
Setting [18] is: read-out: P. falciparum IC50, NF54, mean from n ≥ 2.

Each structure is given as a SMILES string. Like-named read-outs stand apart in the source and are kept apart here. Some results are limits rather than exact numbers.

As to `O=C1Nc2ccccc2C(=O)CCc2cc(F)ccc21` [Compound 32, 9-Fluoro-11,12-dihydro-5H-dibenzo[b,g]azonine-6,13-dione], the chromatographic logD in data set [1] was found to be 2.1. Further, the “loss in 0.1 M PBS pH 7.4” value in [2] is below 5%. The IC50 in [3] (setting [16]) is 130 nM. The half-life at 1 μM in [4] was 25 h. Moreover, the microsomal CLint stood at 110 µL/min/mg in [5] and 11 µL/min/mg in data set [6].
Turning to `O=C1Nc2cc(F)cc(F)c2C(=O)CCc2ccccc21` [Compound 28, 1,3-Difluoro-11,12-dihydro-5H-dibenzo[b,g]azonine-6,13-dione], the chromatographic logD in data set [1] came to 2.5. The compound also gave a clearance in data set [7] (male, Swiss outbred, mouse, plasma, iv) of 147 mL/min/kg. For the same compound, the Cmax in data set [7] (male, Swiss outbred, mouse, plasma, po) is around 500 ng/mL. Besides, the “adverse reactions or compound-related side effects” value in [7] (mice, 24 h post-dose sampling period, IV and PO) was “No adverse reactions or compound-related side effects were observed”. This compound yielded a parasitemia in data set [8] of 49.0 ± 4.3%. In addition, the IC50 in data set [3] (setting [16]) was 7 nM. Moreover, the “in vitro selectivity index” value in data set [3] (antiplasmodial selectivity, L6 cytotoxicity vs P. falciparum) is listed as > 10,000. The half-life at 1 μM in [4] was 4.7 h. The microsomal CLint in [5] amounted to 58 µL/min/mg; in data set [6], 17 µL/min/mg.
Regarding `C[C@H]1[C@H](OC(=O)CCC(=O)O)O[C@@H]2O[C@@]3(C)CC[C@H]4[C@H](C)CC[C@@H]1[C@@]24OO3` [Artesunate, artesunate], the IC50 was 6.8 ± 1.4 nM in data set [9]; 7.4 ± 1.3 nM in [10]; 6 ± 0.9 nM in data set [3] (setting [17]); 6.1 ± 1.4 nM in [11]; 2.8 ± 0.64 nM in data set [12].
In the case of `O=C1Nc2ncccc2C(=O)CCc2ccccc21` [Compound 29, 6,7-Dihydro-5H-benzo[g]pyrido[2,3-b]azonine-5,12-(13H)-dione], in [13], the “Kinetic Sol6.5” value is above 100 µg/mL. In data set [1], this compound showed a gLogD7.4 of 1.2. Also, the IC50 in data set [14] came out at 60000 nM; in data set [3] (setting [18]) it was 8900 nM. For the same compound, the “m CLint” value in data set [5] was 26 μL/min/mg protein. Further, in data set [6], the “h CLint” value worked out at 13 μL/min/mg protein.
On to `CCN(CC)CCCC(C)Nc1ccnc2cc(Cl)ccc12` (stereo not drawn) [Chloroquine, chloroquine], for which the IC50 in data set [9] came to 350 nM; in data set [10] it was 160 ± 22 nM; in data set [3] (Plasmodium falciparum, NF54, read-out: P. falciparum IC50 NF54), 9.1 ± 1.5 nM; in data set [11], 180 ± 21 nM; in data set [12], 270 ± 41 nM; in data set [15], 57 ± 0.9 nM.
As for `O=C1Nc2ccccc2C(=O)CCc2ccccc21` [Compound 2, 11,12-dihydro-5H-dibenzo[b,g]azonine-6,13-dione], the chromatographic logD in [1] stood at 1.9. In addition, in data set [2], the “loss in 0.1 M PBS pH 7.4” value is on record as below 5%. Further, the IC50 in data set [3] (setting [16]) was 190 nM. The “Apparent degradation t1/2, In Vitro Assay Medium” value in data set [4] (1 μM, 37 °C, 6 h incubation, parentheses 95% confidence interval) is given as “No loss detected over 6 h”. The same compound had a microsomal CLint in [5] of 39 µL/min/mg. Also, in data set [6], the “h CLint” value was found to be 20 μL/min/mg protein and the intrinsic metabolic clearance (microsomal CLint) lay within 20 to 40 µL/min/mg.
Take `CCOC(=O)c1ccc2c(c1)C(=O)CCc1ccccc1C(=O)N2` [Compound 18, Ethyl 6,13-Dioxo-6,11,12,13-tetrahydro-5H-dibenzo-[b,g]azonine-2-carboxylate]: the chromatographic logD in data set [1] stood at 2.6. The IC50 in [9] was found to be 11 ± 0.86 nM; in data set [10], 1000 nM; in [3] (setting [16]), 41 nM; in data set [3] (setting [17]), 41 ± 7.4 nM; in [11] it was 30 ± 7.2 nM; in data set [12], 30 ± 7.5 nM. Besides, in [15], the IC50 came out at 32 ± 9.9 nM. The “fold more potent than 2 (antiplasmodial)” value in [3] (relative to compound 2) is recorded as “roughly 5 fold”. For the same compound, the microsomal CLint in [5] stood at 910 µL/min/mg; in [6] it was 100 µL/min/mg.
As for `O=C1CCc2cccnc2C(=O)Nc2ccccc21` [Compound 31, 5,6-Dihydro-7H-benzo[b]pyrido[3,2-g]azonine-7,13-(12H)-dione], the “Kinetic Sol6.5” value in [13] is above 100 µg/mL. In [1], this compound showed a gLogD7.4 of 0.9. The IC50 in data set [14] is 190000 nM; in [3] (setting [18]) it was 11000 nM. Moreover, the “m CLint” value in data set [5] amounted to 10 μL/min/mg protein. For the same compound, the “h CLint” value in [6] is on record as 11 μL/min/mg protein.
